Experimental data as given in ChEMBL document CHEMBL4376834, “Discovery of 4H-Chromen-4-one Derivatives as a New Class of Selective Rho Kinase (ROCK) Inhibitors, which Showed Potent Activity in ex Vivo Diabetic Retinopathy Models” (J Med Chem, 2019).

Columns and labels:
[1] = biological target: Serine/threonine-protein kinase Chk2 (Homo sapiens, UniProt O96017, I157T); assay: Inhibition of recombinant human CHK2 I157T mutant (5 to end residues) using KKKVSRSGLYRSP as substrate incubated for 40 mins in presence of [gamma-33ATP] by radiometric scintillation counting analysis
SRSF protein kinase 1 = SRSF protein kinase 1 (Homo sapiens, UniProt Q96SB4); assay: Inhibition of recombinant human SRPK1 (2 to end residues) using RSRSRSRSRSRSRSR as substrate incubated for 40 mins in presence of [gamma33P]ATP by radiometric scintillation counting analysis
[2] = biological target: Serine/threonine-protein kinase PLK2 (Homo sapiens, UniProt Q9NYY3); assay: Inhibition of recombinant human SNK (65 to 409 residues) using casein as substrate incubated for 40 mins in presence of [gamma33P]ATP by radiometric scintillation counting analysis
[3] = biological target: Cyclin-dependent kinase-like 1 (Homo sapiens, UniProt Q00532); assay: Inhibition of recombinant human CDKL1 (1 to 303 residues) using RRRFRPASPLRGP as substrate incubated for 120 mins in presence of [gamma-33ATP] by radiometric scintillation counting analysis
Chain of Cyclin-dependent kinase-like 1 (Q00532 whole entry, the tested form may be a part): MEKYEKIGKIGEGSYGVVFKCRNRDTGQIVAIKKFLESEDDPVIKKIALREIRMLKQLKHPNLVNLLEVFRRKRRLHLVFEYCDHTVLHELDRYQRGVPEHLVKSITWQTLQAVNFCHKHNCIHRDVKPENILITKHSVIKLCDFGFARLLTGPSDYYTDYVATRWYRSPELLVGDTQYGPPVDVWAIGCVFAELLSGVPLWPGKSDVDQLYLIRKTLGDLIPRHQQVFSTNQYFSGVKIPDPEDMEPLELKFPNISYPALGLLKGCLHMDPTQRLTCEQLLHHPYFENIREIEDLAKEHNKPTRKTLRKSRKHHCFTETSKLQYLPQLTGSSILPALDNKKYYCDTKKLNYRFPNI

[4] = biological target: Phosphatidylinositol 4-phosphate 3-kinase C2 domain-containing subunit alpha (Homo sapiens, UniProt O00443); assay: Inhibition of human PI3KC2
[5] = biological target: Glycogen synthase kinase-3 alpha (Homo sapiens, UniProt P49840); assay: Inhibition of human GSK-3alpha S449A mutant (2 to end residues) using YRRAAVPPSPSLSR as substrate after 40 mins by [gamma-33ATP] radiometric scintillation counting analysis
Chain of Glycogen synthase kinase-3 alpha (P49840 whole entry): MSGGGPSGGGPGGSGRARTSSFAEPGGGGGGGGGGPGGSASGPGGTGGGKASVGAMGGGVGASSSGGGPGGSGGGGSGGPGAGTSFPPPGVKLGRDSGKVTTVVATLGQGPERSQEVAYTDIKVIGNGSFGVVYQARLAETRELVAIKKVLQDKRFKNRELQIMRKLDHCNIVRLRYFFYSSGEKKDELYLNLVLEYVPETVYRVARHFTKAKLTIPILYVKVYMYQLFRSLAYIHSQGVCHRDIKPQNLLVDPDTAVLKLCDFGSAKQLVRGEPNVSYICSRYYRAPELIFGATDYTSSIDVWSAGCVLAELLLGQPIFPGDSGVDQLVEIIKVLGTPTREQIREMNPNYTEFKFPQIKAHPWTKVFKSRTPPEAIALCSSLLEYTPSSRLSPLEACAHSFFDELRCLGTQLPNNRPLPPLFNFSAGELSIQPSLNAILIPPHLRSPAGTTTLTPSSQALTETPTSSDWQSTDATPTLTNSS

[6] = biological target: Mitogen-activated protein kinase 14 (Homo sapiens, UniProt Q16539, T106M); assay: Inhibition of recombinant human full length SAPK2a T106M mutant using myelin basic protein as substrate incubated for 40 mins in presence of [gamma33P]ATP by radiometric scintillation counting analysis
[7] = biological target: RAC-gamma serine/threonine-protein kinase (Homo sapiens, UniProt Q9Y243, S472D); assay: Inhibition of recombinant human PKBgamma S472D mutant (117 to end residues) using GRPRTSSFAEGKK as substrate incubated for 40 mins in presence of [gamma33P]ATP by radiometric scintillation counting analysis
[8] = biological target: Serine/threonine-protein kinase MARK2 (Homo sapiens, UniProt Q7KZI7); assay: Inhibition of recombinant full-length human PAR1Balpha using KKKVSRSGLYRSP as substrate measured after 40 mins in presence of [gamma33P]ATP by radiometric scintillation counting analysis
Chain of Serine/threonine-protein kinase MARK2 (Q7KZI7 whole entry): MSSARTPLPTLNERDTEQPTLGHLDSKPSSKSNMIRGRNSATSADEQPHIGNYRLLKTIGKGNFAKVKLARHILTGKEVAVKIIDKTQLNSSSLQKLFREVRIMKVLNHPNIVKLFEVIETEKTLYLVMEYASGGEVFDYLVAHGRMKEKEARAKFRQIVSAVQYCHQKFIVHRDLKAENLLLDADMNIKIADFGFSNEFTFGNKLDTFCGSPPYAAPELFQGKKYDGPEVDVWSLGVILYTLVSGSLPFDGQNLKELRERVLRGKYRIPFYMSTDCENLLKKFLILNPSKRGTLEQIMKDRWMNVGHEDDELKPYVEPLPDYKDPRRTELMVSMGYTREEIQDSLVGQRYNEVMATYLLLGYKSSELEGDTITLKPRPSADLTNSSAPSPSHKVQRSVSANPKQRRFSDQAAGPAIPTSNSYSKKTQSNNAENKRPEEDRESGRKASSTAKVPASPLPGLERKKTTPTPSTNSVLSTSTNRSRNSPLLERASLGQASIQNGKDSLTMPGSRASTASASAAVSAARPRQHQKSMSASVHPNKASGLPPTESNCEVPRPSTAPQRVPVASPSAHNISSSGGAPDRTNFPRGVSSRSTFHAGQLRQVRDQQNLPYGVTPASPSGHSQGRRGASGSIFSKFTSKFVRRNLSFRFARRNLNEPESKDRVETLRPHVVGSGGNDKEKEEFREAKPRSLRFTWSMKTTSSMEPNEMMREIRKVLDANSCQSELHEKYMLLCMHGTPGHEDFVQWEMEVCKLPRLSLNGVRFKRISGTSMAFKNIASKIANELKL

[9] = biological target: Serine/threonine-protein kinase/endoribonuclease IRE1 (Homo sapiens, UniProt O75460); assay: Inhibition of human recombinant IRE1 (465 to end residues) using myelin basic protein as substrate after 40 mins by [gamma-33ATP] by radiometric scintillation counting analysis
[10] = biological target: Serine/threonine-protein kinase MRCK beta (Homo sapiens, UniProt Q9Y5S2); assay: Inhibition of recombinant human MRCKbeta (1 to 473 residues) using KKRNRTLTV as substrate incubated for 40 mins in presence of [gamma-33ATP by radiometric scintillation counting analysis
[11] = biological target: Ribosomal protein S6 kinase alpha-1 (Homo sapiens, UniProt Q15418); assay: Inhibition of recombinant full length human Rsk1 using KKKNRTLSVA as substrate incubated for 40 mins in presence of [gamma33P]ATP by radiometric scintillation counting analysis
Chain of Ribosomal protein S6 kinase alpha-1 (Q15418 whole entry): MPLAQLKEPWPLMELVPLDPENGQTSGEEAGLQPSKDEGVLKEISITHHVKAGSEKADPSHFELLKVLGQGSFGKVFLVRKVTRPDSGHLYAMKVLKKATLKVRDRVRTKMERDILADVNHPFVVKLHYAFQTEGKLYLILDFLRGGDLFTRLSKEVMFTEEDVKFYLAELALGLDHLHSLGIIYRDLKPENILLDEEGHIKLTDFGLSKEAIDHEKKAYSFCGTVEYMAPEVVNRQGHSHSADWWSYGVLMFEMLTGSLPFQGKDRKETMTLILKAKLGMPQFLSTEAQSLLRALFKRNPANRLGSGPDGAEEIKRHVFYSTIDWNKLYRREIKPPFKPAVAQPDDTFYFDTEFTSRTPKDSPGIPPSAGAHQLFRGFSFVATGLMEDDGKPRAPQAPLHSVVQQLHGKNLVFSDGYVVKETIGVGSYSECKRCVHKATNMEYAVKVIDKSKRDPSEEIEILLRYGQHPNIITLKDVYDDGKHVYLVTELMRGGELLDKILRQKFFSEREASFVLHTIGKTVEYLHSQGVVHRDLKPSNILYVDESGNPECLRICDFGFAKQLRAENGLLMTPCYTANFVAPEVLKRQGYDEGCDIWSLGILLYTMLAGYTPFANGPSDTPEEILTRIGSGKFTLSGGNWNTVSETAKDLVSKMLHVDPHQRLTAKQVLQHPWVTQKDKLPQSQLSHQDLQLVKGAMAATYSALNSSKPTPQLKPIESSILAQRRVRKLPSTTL

[12] = biological target: Serine/threonine-protein kinase BRSK1 (Homo sapiens, UniProt Q8TDC3); assay: Inhibition of recombinant human BRSK1 ( 2 to end residues) using KKKVSRSGLYRSP substrate incubated for 40 mins in presence of [gamma-33ATP] by radiometric scintillation counting analysis
[13] = biological target: High affinity nerve growth factor receptor (Homo sapiens, UniProt P04629); assay: Inhibition of recombinant human TRKA (440 to end residues) using KKKSPGEYVNIEF as substrate incubated for 40 mins in presence of [gamma33P]ATP by radiometric scintillation counting analysis
Chain of High affinity nerve growth factor receptor (P04629 whole entry): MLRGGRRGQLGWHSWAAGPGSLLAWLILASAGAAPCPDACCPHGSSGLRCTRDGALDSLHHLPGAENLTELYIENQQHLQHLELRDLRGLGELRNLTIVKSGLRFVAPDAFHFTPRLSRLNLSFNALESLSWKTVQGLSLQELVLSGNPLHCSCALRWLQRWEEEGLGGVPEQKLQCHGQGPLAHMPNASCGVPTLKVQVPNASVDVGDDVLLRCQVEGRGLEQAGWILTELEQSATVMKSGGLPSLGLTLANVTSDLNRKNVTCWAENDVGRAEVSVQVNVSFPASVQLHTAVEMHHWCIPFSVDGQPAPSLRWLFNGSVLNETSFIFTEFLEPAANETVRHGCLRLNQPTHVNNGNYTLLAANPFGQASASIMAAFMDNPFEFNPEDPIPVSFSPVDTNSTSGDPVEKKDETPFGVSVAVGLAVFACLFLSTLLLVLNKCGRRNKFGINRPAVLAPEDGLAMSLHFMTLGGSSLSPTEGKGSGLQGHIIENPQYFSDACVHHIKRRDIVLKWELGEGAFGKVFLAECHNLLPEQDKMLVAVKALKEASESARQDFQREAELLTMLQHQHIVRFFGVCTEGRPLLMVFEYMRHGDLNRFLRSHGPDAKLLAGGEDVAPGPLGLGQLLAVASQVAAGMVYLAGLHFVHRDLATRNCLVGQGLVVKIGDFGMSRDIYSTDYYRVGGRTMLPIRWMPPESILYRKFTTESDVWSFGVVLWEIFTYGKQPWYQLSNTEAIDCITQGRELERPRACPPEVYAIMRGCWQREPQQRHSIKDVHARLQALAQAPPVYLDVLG

[14] = biological target: Protein kinase C epsilon type (Homo sapiens, UniProt Q02156); assay: Inhibition of recombinant human PKCepsilon (2 to end residues) using ERMRPRKRQGSVRR as substrate incubated for 40 mins in presence of [gamma33P]ATP by radiometric scintillation counting analysis
[15] = biological target: Tyrosine-protein kinase CSK (Homo sapiens, UniProt P41240); assay: Inhibition of recombinant full length human CSK using poly(Glu, Tyr) 4:1 as substrate incubated 40 mins in presence of [gamma-33ATP] by radiometric scintillation counting analysis
[16] = biological target: Protein kinase C beta type (Homo sapiens, UniProt P05771); assay: Inhibition of recombinant human PKCbeta1 (2 to end residues) using histone H1 as substrate incubated for 40 mins in presence of [gamma33P]ATP by radiometric scintillation counting analysis
Chain of Protein kinase C beta type (P05771 whole entry): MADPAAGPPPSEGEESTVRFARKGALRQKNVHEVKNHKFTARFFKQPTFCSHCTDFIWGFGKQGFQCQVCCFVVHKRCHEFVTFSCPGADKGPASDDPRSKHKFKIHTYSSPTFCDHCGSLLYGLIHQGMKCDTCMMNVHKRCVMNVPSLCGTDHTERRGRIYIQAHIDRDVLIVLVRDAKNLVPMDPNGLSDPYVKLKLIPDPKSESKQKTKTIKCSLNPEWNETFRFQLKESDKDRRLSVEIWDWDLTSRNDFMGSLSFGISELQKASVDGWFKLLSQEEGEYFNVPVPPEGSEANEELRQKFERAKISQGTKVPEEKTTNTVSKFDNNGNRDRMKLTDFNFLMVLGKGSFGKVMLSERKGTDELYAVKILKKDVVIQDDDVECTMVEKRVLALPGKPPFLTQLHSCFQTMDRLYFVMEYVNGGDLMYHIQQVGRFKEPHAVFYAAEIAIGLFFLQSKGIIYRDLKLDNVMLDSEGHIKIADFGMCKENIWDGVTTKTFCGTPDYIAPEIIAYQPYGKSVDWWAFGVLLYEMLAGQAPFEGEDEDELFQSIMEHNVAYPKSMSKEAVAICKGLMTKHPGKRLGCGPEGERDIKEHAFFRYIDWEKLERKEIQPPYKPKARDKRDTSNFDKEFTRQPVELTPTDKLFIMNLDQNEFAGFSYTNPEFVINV

FKBP12A/mTOR = FKBP12A/mTOR (Homo sapiens, UniProt P42345+P62942); assay: Inhibition of recombinant full length human mTOR/FKBP12 measured after 40 mins in presence of [gamma33P]ATP by radiometric scintillation counting analysis; format: protein-complex assay
Chain of FKBP12A/mTOR (P62942 2-108 limits assumed, other chains not shown): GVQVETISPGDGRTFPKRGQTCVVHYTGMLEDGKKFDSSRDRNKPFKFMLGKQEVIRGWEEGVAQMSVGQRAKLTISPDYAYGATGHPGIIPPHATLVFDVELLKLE

[17] = biological target: Serine/threonine-protein kinase 17A (Homo sapiens, UniProt Q9UEE5); assay: Inhibition of recombinant full length human DRAK1 using KKLNRTLSFAEPG as substrate after 40 mins in presence of [gamma-33ATP] by radiometric scintillation counting analysis
Ephrin type-B receptor 4 = Ephrin type-B receptor 4 (Homo sapiens, UniProt P54760); assay: Inhibition of recombinant human EphB4 (561 to end residues) using poly(Glu, Tyr) 4:1 as substrate after 40 mins in presence of [gamma-33ATP] by radiometric scintillation counting analysis
[18] = Inhibition of recombinant human Plk4 S34T mutant (1 to 273 residues) using casein as substrate incubated for 40 mins in presence of [gamma33P]ATP by radiometric scintillation counting analysis
[19] = biological target: PI3-kinase p110-alpha/p85-alpha (Homo sapiens, UniProt P42336, H1047R); assay: Inhibition of recombinant human full length PI3K p110alpha/p85alpha H1047R mutant using phosphatidylinositol 4,5-bisphosphate as substrate incubated for 40 mins in presence of [gamma33P]ATP by radiometric scintillation counting analysis
[20] = biological target: Platelet-derived growth factor receptor alpha (Homo sapiens, UniProt P16234, V561D); assay: Inhibition of human PDGFRalpha V561D mutant (550 to end residues) using GGMEDIYFEFMGG as substrate measured after 40 mins in presence of [gamma33P]ATP by radiometric scintillation counting analysis
Chain of Platelet-derived growth factor receptor alpha (P16234 24-1089 V561D limits assumed): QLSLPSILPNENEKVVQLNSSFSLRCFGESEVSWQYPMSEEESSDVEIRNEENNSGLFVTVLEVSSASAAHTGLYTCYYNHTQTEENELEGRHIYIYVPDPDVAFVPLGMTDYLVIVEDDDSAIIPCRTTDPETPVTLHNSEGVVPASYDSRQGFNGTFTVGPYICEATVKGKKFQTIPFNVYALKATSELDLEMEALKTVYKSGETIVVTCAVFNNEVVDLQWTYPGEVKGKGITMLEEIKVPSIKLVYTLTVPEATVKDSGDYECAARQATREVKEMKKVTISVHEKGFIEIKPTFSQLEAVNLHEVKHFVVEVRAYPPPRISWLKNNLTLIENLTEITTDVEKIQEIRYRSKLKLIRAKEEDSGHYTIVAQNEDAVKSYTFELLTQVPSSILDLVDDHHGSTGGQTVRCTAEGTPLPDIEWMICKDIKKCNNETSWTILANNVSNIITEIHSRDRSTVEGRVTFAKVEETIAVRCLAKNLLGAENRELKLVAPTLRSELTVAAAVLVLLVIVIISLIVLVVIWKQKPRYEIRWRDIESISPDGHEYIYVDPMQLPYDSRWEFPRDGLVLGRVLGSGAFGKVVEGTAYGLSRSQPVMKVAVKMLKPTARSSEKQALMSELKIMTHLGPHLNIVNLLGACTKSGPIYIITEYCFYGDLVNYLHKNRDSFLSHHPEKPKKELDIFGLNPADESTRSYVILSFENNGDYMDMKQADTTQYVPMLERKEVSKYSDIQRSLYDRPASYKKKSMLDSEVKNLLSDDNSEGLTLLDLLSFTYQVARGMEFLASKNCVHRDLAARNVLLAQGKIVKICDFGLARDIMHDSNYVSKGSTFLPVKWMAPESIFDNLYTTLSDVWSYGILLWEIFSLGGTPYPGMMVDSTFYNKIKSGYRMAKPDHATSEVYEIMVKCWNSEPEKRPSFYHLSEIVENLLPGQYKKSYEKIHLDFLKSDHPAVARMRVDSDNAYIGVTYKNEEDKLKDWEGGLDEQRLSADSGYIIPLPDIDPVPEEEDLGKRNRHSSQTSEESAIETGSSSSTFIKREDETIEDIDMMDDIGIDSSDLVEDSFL

[21] = biological target: Serine/threonine-protein kinase Nek6 (Homo sapiens, UniProt Q9HC98); assay: Inhibition of recombinant human NEK6 (2 to end residues) using FLAKSFGSPNRAYKK as substrate measured after 40 mins in presence of [gamma33P]ATP by radiometric scintillation counting analysis
[22] = biological target: Tyrosine-protein kinase ITK/TSK (Homo sapiens, UniProt Q08881); assay: Inhibition of human recombinant Itk (352 to 617 residues) using myelin basic protein as substrate after 40 mins by [gamma-33ATP] by radiometric scintillation counting analysis

Measured: IC50

CN(C)c1ccc(C(=O)Nc2cccc(NC(=O)COc3ccc4c(=O)ccoc4c3)c2)cc1
> 10 µM: all assays above
